Entries after “also recorded” stand apart in the source; their conditions may differ.

Data set [1] has as its system hair cells of mouse OC's in culture. The data set can be described thus: Protection against gentamicin-induced hair cell loss in mouse organ of Corti explants. Type of data set: cell-based. The note with it: 24 h; for loss of hair cells: 50 μM gentamicin alone. As to the method:
(§1) OCs were harvested then placed in culture medium [Dulbecco's Modified Eagle Medium supplemented with 10% FCS, 25 mM HEPES and 30 U/ml penicillin (Invitrogen, Carlsbad, Calif., USA)] and incubated for 24 hours at 37° C. in an atmosphere of 95% O2/5% CO2. After that period, the culture medium was replaced with fresh medium containing no compound or 200 μM gentamycin alone or 200 μM gentamicin with either 2 or 10 μM pioglitazone, and incubated for a further 48 hours at 37° C. Ten OC explants were used for each treatment condition.
(§2) After incubation with compounds, the OCs were fixed in 4% paraformaldehyde, washed and then stained with a fluorescein (FITC)-conjugated phalloidin to detect inner and outer hair cells. After staining, the OCs were visualized and photographed using a fluorescence microscope (Olympus FSX100). Outer and inner hair cells were separately quantitated for the apical, basal, and middle turn of each organ of Corti. The values for each turn were averaged for the 10 OCs used for each condition. Significant differences between treatment groups in numbers OHC and IHC were determined using analysis of variance (ANOVA) followed by the least significant difference (LSD) post-hoc test (Stat View 5.0). Differences associated with P-values of less than 0.05 were considered to be statistically significant. All data are presented as mean±SD.
Methods were similar to those in Example 1. The main differences were that mouse OC's were used rather than rat OC's. Moreover, treatment was performed for 24 hrs with 50 μM gentamicin. The number of OC's used for each experimental condition was 3-5. The concentrations of test substances were 2 μM and 10 μM for tesaglitazar and muraglitazar, and 25 μM and 150 μM for fenofibric acid.

Data set [2] relates to hair cells of organ of Corti (OC) explants. In words: Protection against gentamicin-induced hair cell loss in rat organ of Corti explants. It counts as cell-based, Sprague-Dawley rats. How it is done: All animal procedures were carried out according to protocols approved by the Kantonales Veterinäramt, Basel, Switzerland. Postnatal day 5 (p5) Sprague-Dawley rats were used for the studies. Studies were performed in vitro, using organ of Corti (OC) explants from p5 animals. Animals were sacrificed and the cochleae carefully dissected to separate the organ of Corti from the spiral ganglion, stria vascularis and Reissner's membrane [Sobkowicz H M, Loftus J M, Slapnick S M. Acta Otolaryngol Suppl. 1993; 502:3-36].
as §1, §2

Data set [3] relates to noise-induced hearing loss. The data set can be described thus: Protection against noise-induced hearing loss, auditory brainstem response (ABR). The note with it: for threshold shift (ABR), mean±SD: single 40 μl round window application day before noise. Type of data set: in vivo, guinea pigs. The source says: The guinea pig model is the preferred animal species in hearing research. The agent application as well as the noise trauma was applied under general anesthesia. Upon arrival, animals underwent an acclimatization period of at least one week prior to experiments.
Guinea pigs were first anaesthetized and hearing evaluated by a standard ABR method then into treatment groups. Each animal received a single round window application of test substance to both ears. The following day, animals were exposed to 115 dB broad band noise for 2 hrs under anaesthesia. At one and two weeks following noise exposure, the animals underwent a second hearing evaluation.
Animals were dosed with a single 40 μl application of pioglitazone formulation or matching vehicle, onto the cochlear round window in both ears the day prior to noise exposure. For this approach, a hole was drilled in the rostral part of the skull to directly access the Bulla which allows drug application to the round window under visual control.
Animals were noise-exposed in a soundproof chamber (0.8×0.8×0.8 m, minimal attenuation 60 dB) for 2 h to broadband white noise (5-20 kHz) at 115 dB sound pressure level (SPL) under anaesthesia (60 mg/kg ketamine and 6 mg/kg xylazine). Noise was delivered binaurally by loudspeakers (HTC 11.19; Visaton, Haan, Germany) placed above the animal's head. The speakers were connected to an audio amplifier (Tangent AMP-50; Aulum, Denmark) and a DVD player.
At baseline before the noise exposure and on day 7 and 14 after noise, frequency-specific (2; 4; 8; 12; 16; 20; 24; 28; 32; 36; 40 kHz) auditory brainstem responses (ABR) were recorded in all treated animals and in controls. Auditory stimuli were delivered binaurally at different SPLs with a sinusoid generator (Model SSU2; Werk Fernmeldewesen, Berlin, Germany). Frequency output was controlled and adjusted with a digital counter (1941A Digital Counter; Fluke, Scarborough, Ontario, Canada). Sub-dermal needle electrodes were placed at the vertex (active), mastoid (reference), and in one foot (ground). ABR recordings were carried out with a Viking IV-measurement system (Viasys Healthcare, Conshohocken, Pa.). The brainstem responses were amplified (100,000×), filtered (bandpass 0.15-3 kHz), and averaged (300×) by the Viking IV-system. The amplitudes of the ABR waves were measured at different sound intensities by changing the attenuation of signal amplification. The amplitude-growth function was calculated for each tested frequency, and a linear regression was fitted to the linear portion of the data. The hearing threshold could be calculated for each frequency by extrapolating the linear amplitude-grow function of the regression line to zero. […]

Setting [4] is: concentration not stated, 50 μM gentamicin, medio-basal turns.
[5] abbreviates: 2 μM test substance with 50 μM gentamicin.
The mark [6] stands for this setting: 10 μM test substance with 50 μM gentamicin.

As to fenofibric acid, the entries for the “protection from gentamicin-dependent hair cell loss” value in data set [1] (25 μM test substance with 50 μM gentamicin), in data set [1] (150 μM test substance with 50 μM gentamicin) and in data set [1] (setting [4]) were “not effective”, “completely protective” and “protected from gentamicin-dependent hair cell loss; also recorded: significantly prevent gentamicin-dependent hair cell loss”, respectively.

In the case of `CCc1ccc(CCOc2ccc(CC3SC(=O)NC3=O)cc2)nc1` (stereo not drawn) [Pioglitazone, pioglitazone], the “prevention of gentamicin-dependent hair cell loss (IHC and OHC; apical, basal, middle turns)” value in data set [2] (2 μM pioglitazone with 200 μM gentamicin, 48 h) is reported as “significantly prevent gentamicin-dependent hair cell loss in all turns”; in data set [2] (2 μM pioglitazone with 200 μM gentamicin, 48 h, listed as pioglitazone), “completely prevent gentamicin-dependent hair cell loss in all turns”; in data set [2] (10 μM pioglitazone with 200 μM gentamicin, 48 h), “significantly prevent gentamicin-dependent hair cell loss in all turns”; in data set [2] (10 μM pioglitazone with 200 μM gentamicin, 48 h, listed as pioglitazone) it was “completely prevent gentamicin-dependent hair cell loss in all turns”. Besides, the “prevention of gentamicin-dependent hair cell loss” value in data set [2] (pioglitazone co-treatment, concentration not stated, 48 h) is listed as “almost completely preventing gentamicin-dependent hair cell loss”. Moreover, the “reduction in the threshold shifts vs. vehicle controls” value in data set [3] (hearing recorded 7-14 days after noise trauma) is over 50%. The “threshold shift (ABR), mean±SD” value is listed as 12.7±1.3 dB in data set [3] (one week after noise (115 dB, 2 h), 5-20 kHz) and 6.3±3.9 dB in data set [3] (two weeks after noise (115 dB, 2 h)). For the same molecule, in data set [3] (one week after noise, vs. vehicle), the “protection from noise-induced hearing loss” value is “approximately 60%”.

For the molecule Tesaglitazar, the “protection from gentamicin-dependent hair cell loss” value is “able to antagonize the effects of gentamicin and to preserve hair cell number and morphology” in data set [1] (setting [5]); “able to antagonize the effects of gentamicin and to preserve hair cell number and morphology” in data set [1] (setting [6]); “protected from gentamicin-dependent hair cell loss; also recorded: significantly prevent gentamicin-dependent hair cell loss” in data set [1] (setting [4]).

Take `COc1ccc(OC(=O)N(CC(=O)O)Cc2ccc(OCCc3nc(-c4ccccc4)oc3C)cc2)cc1` [Muraglitazar]: the “protection from gentamicin-dependent hair cell loss” value in data set [1] (setting [5]) is “not effective”; in data set [1] (setting [6]), “partially protective”; in data set [1] (setting [4]), “protected from gentamicin-dependent hair cell loss; also recorded: significantly prevent gentamicin-dependent hair cell loss”.

As for gentamicin, the “reduction of hair cell number” value in data set [2] (200 μM gentamicin alone, 48 h in culture, each segment) is 50-70%. The “loss of hair cells” value in data set [1] is “approximately 50%”; in data set [1] (listed as Gentamicin) it was 50%.
